This is an account of results in patent US7338956B2, “Acylamino-substituted heteroaromatic compounds and their use as pharmaceuticals” (Sanofi-Aventis Deutschland GmbH, priority 2002, dated 2008).

The assay concerns eNOS promoter. Nature of the assay: Determination of activation of eNOS transcription (eNOS promoter firefly luciferase reporter gene assay). Type of assay: cell-based. Conditions: human endothelial cell line stable transfected with eNOS promoter-luciferase construct; 18 h incubation; EC50 determined graphically; read-out: EC50 values of transcription induction ratio. How it is done:
Activation of eNOS transcription was determined as described in detail in Li et al., “Activation of protein kinase C alpha and/or epsilon enhances transcription of the human endothelial nitric oxide synthase gene”, Mol. Pharmacol. 53 (1998) 630 (the content of which is incorporated herein by reference). Briefly, a 3.5 kB long fragment 5′ of the starting codon of the eNOS gene was cloned, sequenced and cloned in firefly luciferase expression plasmids to monitor activation of the eNOS promoter by reporter gene activity. A human endothelial cell line stable transfected and expressing this promoter-reporter construct was used for compound testing. Cells were incubated for 18 h with compounds.
All compounds were dissolved in sterile dimethyl sulfoxide (DMSO). A final concentration of 0.5% DMSO in complete medium was allowed. Induction of reporter gene expression in these cells was measured using a standard luciferase assay system (Promega, Cat. No E150) according to the manufacturer's instructions. Luciferase induction in cells incubated with compounds were compared to those incubated with solvent alone. The ratio of both activities (transcription induction ratio, TIR) was plotted as a function of compound concentration. […] EC50 values of transcription induction ratios as a function of compound concentration were determined graphically.
On the technique in general: In a reporter assay the amount or activity of a reporter protein is the signal.

Each structure is given as a SMILES string. Bounds are passed on as bounds.

On to `O=C(Nc1nc2cc(Cl)ccc2s1)c1ccc(F)cc1` [Example 123, N-(5-Chlorobenzothiazol-2-yl)-4-fluorobenzamide], for which the EC50 was determined as 12 µM. Take `O=C(Nc1nc2cccc(Cl)c2s1)c1ccc(F)cc1` [Example 124, N-(7-Chlorobenzothiazol-2-yl)-4-fluorobenzamide]: the EC50 is < 0.1 µM.
